From patent publication US20240174662A1, “SMALL MOLECULE INHIBITORS OF SALT INDUCIBLE KINASES” (Janssen Biotech, Inc., priority 2021, published 2024)

target: SIK2 (Homo sapiens (Human), UniProt Q9H0K1); assay: SIK2 Enzymatic Assay Version 2 (High ATP); assay type: biochemical; settings: 3 mM ATP and 200 μM HDAC5tide final, ADP-Glo Max luminescence
How it was run: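 Luminescent ADP-Glo Max read-out: depletion reagent 2 h, then detection reagent 1 h. Before the reaction, compounds were incubated 30 min with enzyme added at 6 nM (twice final concentration), with all steps at room temperature.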

Sequence of SIK2 (Q9H0K1 whole entry, species assumed): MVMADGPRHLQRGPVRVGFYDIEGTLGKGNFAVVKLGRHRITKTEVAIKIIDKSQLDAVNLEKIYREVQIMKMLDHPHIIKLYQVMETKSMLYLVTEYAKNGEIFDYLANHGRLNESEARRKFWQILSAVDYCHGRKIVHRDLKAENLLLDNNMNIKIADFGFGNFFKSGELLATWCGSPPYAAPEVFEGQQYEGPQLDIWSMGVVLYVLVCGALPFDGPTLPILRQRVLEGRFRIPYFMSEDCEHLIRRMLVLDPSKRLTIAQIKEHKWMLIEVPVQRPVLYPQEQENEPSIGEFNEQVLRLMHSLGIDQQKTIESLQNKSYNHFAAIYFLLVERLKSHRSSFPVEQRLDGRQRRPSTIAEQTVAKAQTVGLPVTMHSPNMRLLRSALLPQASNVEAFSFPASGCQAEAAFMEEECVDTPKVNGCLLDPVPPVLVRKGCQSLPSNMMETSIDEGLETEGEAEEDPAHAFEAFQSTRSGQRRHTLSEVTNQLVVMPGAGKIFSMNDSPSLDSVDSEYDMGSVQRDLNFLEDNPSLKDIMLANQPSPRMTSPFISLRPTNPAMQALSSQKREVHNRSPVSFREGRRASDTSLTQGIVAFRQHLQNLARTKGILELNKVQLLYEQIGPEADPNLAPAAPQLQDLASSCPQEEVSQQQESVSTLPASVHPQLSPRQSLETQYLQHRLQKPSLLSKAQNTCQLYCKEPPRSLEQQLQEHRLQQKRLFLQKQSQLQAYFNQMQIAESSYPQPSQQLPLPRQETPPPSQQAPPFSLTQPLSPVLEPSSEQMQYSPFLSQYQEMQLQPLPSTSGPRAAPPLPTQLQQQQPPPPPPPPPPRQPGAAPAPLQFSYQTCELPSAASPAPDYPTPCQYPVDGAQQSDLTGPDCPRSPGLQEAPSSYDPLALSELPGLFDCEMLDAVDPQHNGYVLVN

How did the IC50 turn out when `Cn1ncc(OC[C@H]2CCN2Cc2ccccc2)c1-c1ccn2nc(NC(=O)C3CC3)cc2c1` [Example 429, N-[5-[4-[[(2R)-1-benzylazetidin-2-yl]methoxy]-2-methyl-pyrazol-3-yl]pyrazolo[1,5-a]pyridin-2-yl]cyclopropanecarboxamide] was run?
Its IC50 is 99.9 nM.

Which IC50 does the source give for `Cn1ccc(CN2CC[C@@H]2COc2cnn(C)c2-c2ccn3nc(NC(=O)C4CC4)cc3c2)n1` [Example 430, N-[5-[2-methyl-4-[[(2R)-1-[(1-methylpyrazol-3-yl)methyl]azetidin-2-yl]methoxy]pyrazol-3-yl]pyrazolo[1,5-a]pyridin-2-yl]cyclopropanecarboxamide] here?
The IC50 was 97 nM.

Which IC50 does the source give for `Cn1ncc(OC[C@H]2CCN2CCOC(F)(F)F)c1-c1ccn2nc(NC(=O)C3CC3)cc2c1` [Example 431, N-[5-[2-methyl-4-[[(2R)-1-[2-(trifluoromethoxy)ethyl]azetidin-2-yl]methoxy]pyrazol-3-yl]pyrazolo[1,5-a]pyridin-2-yl]cyclopropanecarboxamide] here?
Its IC50 is 181 nM.

With `CN1C[C@H]2C[C@H]2[C@@H]1COc1cnn(C)c1-c1ccn2nc(NC(=O)C3CC3)cc2c1` [Example 432, N-[5-[2-methyl-4-[[(1S,4R,5R)-3-methyl-3-azabicyclo[3.1.0]hexan-4-yl]methoxy]pyrazol-3-yl]pyrazolo[1,5-a]pyridin-2-yl]cyclopropanecarboxamide] as the compound, how does the IC50 read?
Its IC50 is 76.8 nM.

With `Cn1ncc(OC[C@H]2CCN2CC2COC2)c1-c1ccn2nc(NC(=O)C3CC3)cc2c1` [Example 433, N-[5-[2-methyl-4-[[(2R)-1-(oxetan-3-ylmethyl)azetidin-2-yl]methoxy]pyrazol-3-yl]pyrazolo[1,5-a]pyridin-2-yl]cyclopropanecarboxamide] as the compound, how does the IC50 read?
Its IC50 is 122 nM.

Which IC50 does the source give for `CNC1(COc2cnn(C)c2-c2ccn3nc(NC(=O)C4CC4)cc3c2)CC1` [Example 434, N-[5-[2-methyl-4-[[1-(methylamino)cyclopropyl]methoxy]pyrazol-3-yl]pyrazolo[1,5-a]pyridin-2-yl]cyclopropanecarboxamide] here?
Its IC50 is 101 nM.

How did the IC50 turn out when `COC(C)(C)CN1CC[C@@H]1COc1cnn(C)c1-c1ccn2nc(NC(=O)C3CC3)cc2c1` [Example 435, N-[5-[4-[[(2R)-1-(2-methoxy-2-methyl-propyl)azetidin-2-yl]methoxy]-2-methyl-pyrazol-3-yl]pyrazolo[1,5-a]pyridin-2-yl]cyclopropanecarboxamide] was run?
Its IC50 is 79.7 nM.

How did the IC50 turn out when `Cn1ncc(OC[C@H]2CCN2c2ccccn2)c1-c1ccn2nc(NC(=O)C3CC3)cc2c1` [Example 436, N-[5-[2-methyl-4-[[(2R)-1-(2-pyridyl)azetidin-2-yl]methoxy]pyrazol-3-yl]pyrazolo[1,5-a]pyridin-2-yl]cyclopropanecarboxamide] was run?
Its IC50 is 79 nM.

With `C[C@H]1CN(C)[C@H]1COc1cnn(C)c1-c1ccn2nc(NC(=O)C3CC3)cc2c1` [Example 437, N-[5-[4-[[(2R,3S)-1,3-dimethylazetidin-2-yl]methoxy]-2-methyl-pyrazol-3-yl]pyrazolo[1,5-a]pyridin-2-yl]cyclopropanecarboxamide] as the compound, how does the IC50 read?
Its IC50 is 85.6 nM.

`Cc1cc(Nc2cc3cc(-c4c(OC[C@H]5C[C@H](O)C5)cnn4C)ccn3n2)nc(C)n1` [Example 438, 3-[[5-[2-[(2,6-dimethylpyrimidin-4-yl)amino]pyrazolo[1,5-a]pyridin-5-yl]-1-methyl-pyrazol-4-yl]oxymethyl]cyclobutanol] was tested. Which IC50 did it give?
The IC50 was 88 nM.

For `Cc1cc(Nc2cc3cc(-c4c(O[C@H]5CCN[C@@H]5C)cnn4C)ccn3n2)nc(C)n1` [Example 442, N-(2,6-dimethylpyrimidin-4-yl)-5-[2-methyl-4-[(2R,3S)-2-methylpyrrolidin-3-yl]oxy-pyrazol-3-yl]pyrazolo[1,5-a]pyridin-2-amine], which IC50 is on record?
Its IC50 is 106 nM.

How did the IC50 turn out when `Cc1cc(Nc2cc3cc(-c4c(OC[C@H]5C[C@H](C)CN5)cnn4C)ccn3n2)nc(C)n1` [Example 446, N-(2,6-dimethylpyrimidin-4-yl)-5-[2-methyl-4-[[(2R,4S)-4-methylpyrrolidin-2-yl]methoxy]pyrazol-3-yl]pyrazolo[1,5-a]pyridin-2-amine] was run?
The IC50 was 111 nM.

How did the IC50 turn out when `CN1CC[C@H](Oc2cnn(C)c2-c2ccn3nc(Nc4cccnn4)cc3c2)C1` [Example 449, 5-[2-methyl-4-[(3S)-1-methylpyrrolidin-3-yl]oxy-pyrazol-3-yl]-N-pyridazin-3-yl-pyrazolo[1,5-a]pyridin-2-amine] was run?
Its IC50 is 89.5 nM.

With `CN1CC[C@H](Oc2cnn(C)c2-c2ccn3nc(Nc4cnccn4)cc3c2)C1` [Example 450, 5-[2-methyl-4-[(3S)-1-methylpyrrolidin-3-yl]oxy-pyrazol-3-yl]-N-pyrazin-2-yl-pyrazolo[1,5-a]pyridin-2-amine] as the compound, how does the IC50 read?
Its IC50 is 75.1 nM.

With `Cc1ccc(Nc2cc3cc(-c4c(O[C@H]5CCN(C)C5)cnn4C)ccn3n2)cn1` [Example 451, 5-[2-methyl-4-[(3S)-1-methylpyrrolidin-3-yl]oxy-pyrazol-3-yl]-N-(6-methyl-3-pyridyl)pyrazolo[1,5-a]pyridin-2-amine] as the compound, how does the IC50 read?
Its IC50 is 107 nM.

`CN1CC[C@H](Oc2cnn(C)c2-c2ccn3nc(Nc4ccccn4)cc3c2)C1` [Example 452, 5-[2-methyl-4-[(3S)-1-methylpyrrolidin-3-yl]oxy-pyrazol-3-yl]-N-(2-pyridyl)pyrazolo[1,5-a]pyridin-2-amine] was tested. Which IC50 did it give?
The IC50 was 135 nM.

With `CN1CC[C@H](Oc2cnn(C)c2-c2ccn3nc(Nc4cnc(C(F)(F)F)cn4)cc3c2)C1` [Example 453, 5-[2-methyl-4-[(3S)-1-methylpyrrolidin-3-yl]oxy-pyrazol-3-yl]-N-[5-(trifluoromethyl)pyrazin-2-yl]pyrazolo[1,5-a]pyridin-2-amine] as the compound, how does the IC50 read?
The IC50 was 162 nM.

How did the IC50 turn out when `Cc1cnc(Nc2cc3cc(-c4c(O[C@H]5CCN(C)C5)cnn4C)ccn3n2)cn1` [Example 454, 5-[2-methyl-4-[(3S)-1-methylpyrrolidin-3-yl]oxy-pyrazol-3-yl]-N-(5-methylpyrazin-2-yl)pyrazolo[1,5-a]pyridin-2-amine] was run?
Its IC50 is 81.3 nM.

How did the IC50 turn out when `CN1CC[C@H](Oc2cnn(C)c2-c2ccn3nc(Nc4ccncn4)cc3c2)C1` [Example 455, 5-[2-methyl-4-[(3S)-1-methylpyrrolidin-3-yl]oxy-pyrazol-3-yl]-N-pyrimidin-4-yl-pyrazolo[1,5-a]pyridin-2-amine] was run?
Its IC50 is 137 nM.

`Cc1nccc(Nc2cc3cc(-c4c(O[C@H]5CCN(C)C5)cnn4C)ccn3n2)n1` [Example 456, 5-[2-methyl-4-[(3S)-1-methylpyrrolidin-3-yl]oxy-pyrazol-3-yl]-N-(2-methylpyrimidin-4-yl)pyrazolo[1,5-a]pyridin-2-amine] was tested. Which IC50 did it give?
The IC50 was 102 nM.

Which IC50 does the source give for `CN1CC[C@H](Oc2cnn(C)c2-c2ccn3nc(Nc4cc(C(F)(F)F)cnn4)cc3c2)C1` [Example 457, 5-[2-methyl-4-[(3S)-1-methylpyrrolidin-3-yl]oxy-pyrazol-3-yl]-N-[5-(trifluoromethyl)pyridazin-3-yl]pyrazolo[1,5-a]pyridin-2-amine] here?
The IC50 was 165 nM.

For `CN1CC[C@H](Oc2cnn(C)c2-c2ccn3nc(Nc4ccnc(C(F)(F)F)n4)cc3c2)C1` [Example 458, 5-[2-methyl-4-[(3S)-1-methylpyrrolidin-3-yl]oxy-pyrazol-3-yl]-N-[2-(trifluoromethyl)pyrimidin-4-yl]pyrazolo[1,5-a]pyridin-2-amine], which IC50 is on record?
The IC50 was 167 nM.

For `CN1CC[C@H](Oc2cnn(C)c2-c2ccn3nc(Nc4cc(C(F)(F)F)ncn4)cc3c2)C1` [Example 459, 5-[2-methyl-4-[(3S)-1-methylpyrrolidin-3-yl]oxy-pyrazol-3-yl]-N-[6-(trifluoromethyl)pyrimidin-4-yl]pyrazolo[1,5-a]pyridin-2-amine], which IC50 is on record?
Its IC50 is 145 nM.

With `CN1CC[C@H](Oc2cnn(C)c2-c2ccn3nc(Nc4cnc5c(ccn5C)c4)cc3c2)C1` [Example 460, 1-methyl-N-[5-[2-methyl-4-[(3S)-1-methylpyrrolidin-3-yl]oxy-pyrazol-3-yl]pyrazolo[1,5-a]pyridin-2-yl]pyrrolo[2,3-b]pyridin-5-amine] as the compound, how does the IC50 read?
Its IC50 is 164 nM.

For `COCc1cc(Nc2cc3cc(-c4c(O[C@H]5CCN(C)C5)cnn4C)ccn3n2)ncn1` [Example 461, N-[6-(methoxymethyl)pyrimidin-4-yl]-5-[2-methyl-4-[(3S)-1-methylpyrrolidin-3-yl]oxy-pyrazol-3-yl]pyrazolo[1,5-a]pyridin-2-amine], which IC50 is on record?
Its IC50 is 72.4 nM.

`CN1CC[C@H](Oc2cnn(C)c2-c2ccn3nc(Nc4ccc(C5CC5)nn4)cc3c2)C1` [Example 462, N-(6-cyclopropylpyridazin-3-yl)-5-[2-methyl-4-[(3S)-1-methylpyrrolidin-3-yl]oxy-pyrazol-3-yl]pyrazolo[1,5-a]pyridin-2-amine] was tested. Which IC50 did it give?
The IC50 was 86.5 nM.

With `Cn1ncc(COC2CCNCC2)c1-c1ccn2nc(NC(=O)C3CC3)cc2c1` [Example 463, N-[5-[2-methyl-4-(4-piperidyloxymethyl)pyrazol-3-yl]pyrazolo[1,5-a]pyridin-2-yl]cyclopropanecarboxamide] as the compound, how does the IC50 read?
Its IC50 is 74.5 nM.

With `CN1CC[C@H](OCc2cnn(C)c2-c2ccn3nc(NC(=O)C4CC4)cc3c2)C1` [Example 464, N-[5-[2-methyl-4-[[(3S)-1-methylpyrrolidin-3-yl]oxymethyl]pyrazol-3-yl]pyrazolo[1,5-a]pyridin-2-yl]cyclopropanecarboxamide] as the compound, how does the IC50 read?
Its IC50 is 82.8 nM.

`Cn1ncc(CO[C@@H]2CNC[C@H]2F)c1-c1ccn2nc(NC(=O)C3CC3)cc2c1` [Example 466, N-[5-[4-[[(3R,4R)-4-fluoropyrrolidin-3-yl]oxymethyl]-2-methyl-pyrazol-3-yl]pyrazolo[1,5-a]pyridin-2-yl]cyclopropanecarboxamide] was tested. Which IC50 did it give?
Its IC50 is 80.7 nM.

For `CN1C[C@@H](F)[C@H](OCc2cnn(C)c2-c2ccn3nc(NC(=O)C4CC4)cc3c2)C1` [Example 467, N-[5-[4-[[(3R,4R)-4-fluoro-1-methyl-pyrrolidin-3-yl]oxymethyl]-2-methyl-pyrazol-3-yl]pyrazolo[1,5-a]pyridin-2-yl]cyclopropanecarboxamide], which IC50 is on record?
Its IC50 is 113 nM.

Which IC50 does the source give for `CCC1(OCc2cnn(C)c2-c2ccn3nc(NC(=O)C4CC4)cc3c2)CN(C)C1` [Example 468, N-[5-[4-[(3-ethyl-1-methyl-azetidin-3-yl)oxymethyl]-2-methyl-pyrazol-3-yl]pyrazolo[1,5-a]pyridin-2-yl]cyclopropanecarboxamide] here?
The IC50 was 81.7 nM.
